Values after ≈ are worked out from the molar mass of the structure shown.
Test system: Mannheimia haemolytica
Experiment: minimum inhibitory concentration (MIC)
Procedure: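 Broth microdilution MIC (Sensititre BOPO7F bovine plate, CLSI methods) of 19 antimicrobials against field isolates of P. multocida, M. haemolytica, H. somni (deep nasopharyngeal swabs) and E. coli, Enterococcus spp. (rectal swabs) from weaned dairy heifers. Incubation 16-24 h at 35 C. MIC is the lowest concentration preventing visible growth. Values with <= or > lie at the tested range limits. Trimethoprim-sulfamethoxazole is given as the trimethoprim component of a 1:19 mixture.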

CC[C@H]1OC(=O)C[C@@H](O)[C@H](C)[C@@H](O[C@@H]2O[C@H](C)[C@@H](O)[C@H](N(C)C)[C@H]2O)[C@@H](CCN2CCCCC2)C[C@@H](C)C(=O)/C=C/C(C)=C/[C@@H]1CN1CCCCC1 [Tildipirosin]
Settings	minimum inhibitory concentration [µg/mL]
isolate (source animal id): 8	≤ 1
isolate (source animal id): 13	≤ 1
isolate (source animal id): 18	≤ 1
isolate (source animal id): 21	≤ 1
isolate (source animal id): 25	16 (≈ 21.8 µM)
isolate (source animal id): 27	16 (≈ 21.8 µM)
isolate (source animal id): 28	4 (≈ 5.45 µM)
isolate (source animal id): 30	≤ 1
isolate (source animal id): 31	4 (≈ 5.45 µM)
isolate (source animal id): 32	≤ 1
isolate (source animal id): 34	≤ 1
isolate (source animal id): 36	16 (≈ 21.8 µM)
isolate (source animal id): 37	16 (≈ 21.8 µM)
isolate (source animal id): 40	≤ 1
isolate (source animal id): 41	≤ 1
isolate (source animal id): 43	≤ 1
isolate (source animal id): 46	16 (≈ 21.8 µM)
isolate (source animal id): 49	16 (≈ 21.8 µM)
isolate (source animal id): 50	16 (≈ 21.8 µM)
isolate (source animal id): 51	≤ 1
isolate (source animal id): 52	≤ 1
isolate (source animal id): 53	≤ 1
isolate (source animal id): 55	≤ 1
isolate (source animal id): 56	≤ 1
isolate (source animal id): 57	> 16
isolate (source animal id): 100	16 (≈ 21.8 µM)
isolate (source animal id): 103	16 (≈ 21.8 µM)
isolate (source animal id): 107	16 (≈ 21.8 µM)
isolate (source animal id): 108	16 (≈ 21.8 µM)
isolate (source animal id): 112	> 16
isolate (source animal id): 113	> 16
isolate (source animal id): 121	16 (≈ 21.8 µM)
isolate (source animal id): 122	2 (≈ 2.72 µM)
isolate (source animal id): 123	> 16
isolate (source animal id): 126	> 16
isolate (source animal id): 133	> 16
isolate (source animal id): 135	> 16
isolate (source animal id): 138	> 16
isolate (source animal id): 141	> 16
isolate (source animal id): 142	> 16
isolate (source animal id): 145	4 (≈ 5.45 µM)
isolate (source animal id): 149	2 (≈ 2.72 µM)
isolate (source animal id): 151	2 (≈ 2.72 µM)
isolate (source animal id): 152	16 (≈ 21.8 µM)
isolate (source animal id): 154	≤ 1
isolate (source animal id): 159	> 16
isolate (source animal id): 162	> 16
isolate (source animal id): 170	2 (≈ 2.72 µM)
isolate (source animal id): 171	≤ 1
isolate (source animal id): 172	2 (≈ 2.72 µM)
isolate (source animal id): 173	2 (≈ 2.72 µM)
isolate (source animal id): 179	2 (≈ 2.72 µM)
isolate (source animal id): 180	≤ 1
isolate (source animal id): 183	≤ 1
isolate (source animal id): 186	≤ 1
isolate (source animal id): 187	≤ 1
isolate (source animal id): 188	≤ 1
isolate (source animal id): 190	≤ 1
isolate (source animal id): 191	2 (≈ 2.72 µM)
isolate (source animal id): 192	≤ 1
isolate (source animal id): 201	2 (≈ 2.72 µM)
isolate (source animal id): 202	4 (≈ 5.45 µM)
isolate (source animal id): 209	2 (≈ 2.72 µM)
isolate (source animal id): 211	2 (≈ 2.72 µM)
isolate (source animal id): 220	2 (≈ 2.72 µM)
isolate (source animal id): 221	2 (≈ 2.72 µM)
isolate (source animal id): 223	2 (≈ 2.72 µM)
isolate (source animal id): 233	8 (≈ 10.9 µM)
isolate (source animal id): 237	16 (≈ 21.8 µM)
isolate (source animal id): 241	16 (≈ 21.8 µM)
isolate (source animal id): 252	16 (≈ 21.8 µM)
isolate (source animal id): 253	16 (≈ 21.8 µM)
isolate (source animal id): 259	> 16
isolate (source animal id): 260	> 16
isolate (source animal id): 262	16 (≈ 21.8 µM)
isolate (source animal id): 282	> 16
isolate (source animal id): 287	> 16

— the supplement of paper PMC8612539
